Row | SMILES | melting point
1 | CCCCCn1nc(-c2ccc(F)cc2)c(-c2ccc(S(C)(=O)=O)cc2)cc1=O | 65 to 67 °C
2 | CCOC(=O)c1c(C(=O)Cc2c(CCNCCc3ccccc3)cc3c(c2OC)OCO3)ccc(OC)c1OC | 102 to 104 °C
3 | CCCCCC(CC(=O)Nc1cc(C(N)=O)ccc1C(C)(C)C)c1cccc(OC)c1O (centres undefined) | 118 to 121 °C
4 | Cc1nc2ccc(Cl)nn2c1Br | 146 to 148 °C
5 | COCC(=O)Nc1ccc2c(c1)CCC2 | 104 to 105 °C
6 | Cc1ncn(-c2ccccc2C#N)n1 | 109 to 110 °C
7 | CC(=O)N1CCC(NC(=O)Nc2cccc(F)c2)CC1 | 112 to 114 °C
8 | Cc1nnc(-c2nsc3ccc([N+](=O)[O-])cc23)s1 | 239 to 240 °C
9 | CCCCCCC1CC(Cn2cncn2)(c2ccccc2)N(C)O1 (centres undefined) | 93 to 99 °C
10 | CCOC(=O)/C=C/c1ccccc1C1C(C(=O)OCC)=C(C)NC(C)=C1C(=O)OCC | 130 to 131 °C
11 | CC(C)(F)Cn1c(CCO)nc2c(N)nc3cccnc3c21 | 224 to 225 °C
12 | CCOC(=O)CNc1nc(Cl)nc(Cl)n1 | 82 to 87 °C
13 | CC(C)(NC(=O)CCn1cnc(C=O)c1)c1ccc(Cl)cc1 | 151 to 153 °C
14 | Nc1cc(Cl)cc2c(Cl)ccnc12 | 132 to 134 °C
15 | CCCCCCCCCCCCCCCC(=O)OCC(F)(F)Cn1nc(C)c(-c2ccc3c(c2)NC(=O)CO3)c1-c1ccc(F)cc1 | 106 °C
16 | CCOC(=O)c1cc2c(Cl)cccc2n1[C@H](C)CNC(=O)OC(C)(C)C | 115 to 119 °C
17 | O=C(O)CCCNC(=O)c1n[nH]cc1NC(=O)c1ccccn1 | 227 to 228 °C
18 | CC(=C(c1ccc(F)cc1)c1ccc(F)cc1)c1nnnn1C | 146 to 147 °C
19 | N#Cc1ccc(N2CCC(F)(F)C2)c2ccccc12 | 68 to 69 °C
20 | CCc1nnc(-c2ccc(OC)c(OC)c2)n1-c1ccc(OC)cc1 | 148 °C
21 | O=c1oc2cc(O)c(O)c([N+](=O)[O-])c2cc1-c1nnn[nH]1 | > 315 °C
22 | CCCCCCCCC(O)C(O)CCCCCCCCCCCC(N)=O (centres undefined) | 153 to 154 °C
23 | CC(C)(C)c1cc(C(C)(C)C)c(OP2OCCN2C(C)(C)C)c(C(C)(C)C)c1 (centres undefined) | 73 to 74 °C

Row | SMILES | melting point
24 | CCC(c1ccccc1)c1c(O)c2c(oc1=O)CCCCCC2 (centres undefined) | 201 to 202 °C
25 | Cn1ncc2c(c1=O)SCCNC2C(=O)c1ccccc1 (centres undefined) | 210 °C
26 | CCCc1c(OCCCSc2cccc(CC(=O)OC)c2F)ccc(C(C)=O)c1O | 63 to 65 °C
27 | CC1(C)COc2ccc(Cl)cc21 | 64 to 66 °C
28 | COc1cc2nc(N)nc(-c3cccc(Cl)c3)c2cc1OC | 242 to 245 °C
29 | COc1cc2c(cc1Cl)C(C)(C)C(CC=O)C2=O (racemic) | 102 to 103 °C
30 | CCc1nc2c(N)nc3cc(OCCc4c(C)n[nH]c4C)ccc3c2s1 | 195 to 197 °C
31 | CCn1nc(C(F)(F)F)c(CS(=O)(=O)C2=NOC(C)(CCl)C2)c1OC (centres undefined) | 139 to 140 °C
32 | Cc1cc(SCc2sc(-c3ccc(C(F)(F)F)cc3)nc2C)c2c(c1OCC(=O)O)CCO2 | 157 to 158 °C
33 | O=C(O)C=CCNCS(=O)(=O)c1ccc([N+](=O)[O-])cc1[N+](=O)[O-] | 174 °C
34 | O=C1C=C(NC(=O)C(=O)c2cn(Cc3c(F)cccc3Cl)c3ccccc23)CO1 | > 270 °C
35 | N#Cc1nn(-c2c(Cl)cc(C(F)(F)F)cc2Cl)c(N)c1-c1ccccc1Cl | 192 to 193 °C
36 | CC(C)(S)CNC(=O)CCC(=O)O | 86 to 87 °C
37 | Cc1cccc(C)c1N1Cc2ccccc2P1(C)=O (centres undefined) | 128 to 129 °C
38 | CCOC(=O)C=Cn1c(=O)n2nc(C(=O)OCC)cc2c2cc(OC)ccc21 | 153 to 154 °C
39 | Cc1c(-c2ccncc2)[nH]c(-c2ccncc2)c1C(=O)OC(C)C | 218 to 221 °C
40 | Cc1ccc(O)c(-c2nc(-c3cc(C)ccc3O)n(-c3ccc(C(=O)O)cc3)n2)c1 | 268 to 269 °C
41 | CNC(=O)c1oc(C(C)(C)C)cc1NC(=O)Nc1ccc(C)cc1 | 190 to 193 °C
42 | COc1ccc(-c2c[nH]c(-c3nc(-c4ccco4)c(C(=O)C4CCOCC4)s3)n2)cc1 | 178 to 180 °C
43 | CCNC(=O)n1ccc2ccccc21 | 71 to 73 °C
44 | CC(C)(C)c1ccc(-c2c(-c3ccncc3)sc3nc(=O)cc(N)n23)cc1 | 259 to 262 °C
45 | CCNc1nc(C(C)C)nc(Cl)c1[N+](=O)[O-] | 50 °C
46 | CC1=C(C(=O)NC(C)(C)C)C(c2ccccc2Cl)C(C(=O)O)=C(COCCn2c(C)nc3ccccc32)N1 (centres undefined) | 187 to 188 °C

Row | SMILES | melting point
47 | CC(C)(O)Cc1ccc(N)cc1 | 107 to 108 °C
48 | N#CCN1C(=O)COc2cc(F)c([N+](=O)[O-])cc21 | 196 to 200 °C
49 | C=CCN1CCC23CC(=O)CCC2(O)C1Cc1cccc(OC)c13 (centres undefined) | 166 to 167 °C
50 | Cc1cc(S(=O)(=O)Nc2ccc(Cl)cc2)c2c(C)ccc(C(C)C)cc1-2 | 134 to 135 °C
51 | CC(C)(C)c1cc(C=Cc2cc(C=Cc3cc(C(C)(C)C)cc(C(C)(C)C)c3)cc(CO)c2)cc(C(C)(C)C)c1 | 226 to 228 °C
52 | Nc1cnc(Cl)c(Cl)c1 | 110 to 113 °C
53 | COC1=Cc2ccccc2C(=CC(=O)O)c2ccsc21 | 163 to 167 °C
54 | CS(=O)(=O)Nc1ccc(C#N)cc1C(O)c1ccc(F)cc1F (centres undefined) | 133 to 135 °C
55 | COc1ccc(NC(=O)C2C(=O)N(C)C(=S)N(C)C2=O)cc1Oc1ccc(C(F)(F)F)cc1Cl | 165 to 168 °C
56 | CNC(=O)Nc1ccc(OC)c(-c2ccc(C[C@H](NC(=O)c3c(Cl)cccc3Cl)C(=O)O)cc2)c1OC | 236 to 237 °C
57 | Cc1c(F)cc(C(=O)NC2CC2)cc1I | 112 to 114 °C
58 | COc1cc(C(C)=O)ccc1OCCCCN1CCN(c2n[nH]c3cc(Cl)ccc23)CC1 | 189 to 191 °C
59 | O=C1c2cc(Cl)c(Cl)cc2C(=O)N1CCCl | 144 to 145 °C
60 | COc1cc2ncc(C(=O)NCc3ccc(Cl)cc3)c(O)c2cc1OC | 184 °C
61 | N#CCc1c(C(=O)O)cc2ccc3c(c2c1-c1ccc(F)cc1)OCO3 | 230 to 233 °C
62 | O=C1NCN(c2ccc(F)cc2)C12CCN(CCNC(c1ccc(F)cc1)c1ccc(F)cc1)CC2 | 193 °C
63 | O=C(c1cccnc1)c1cccs1 | 90 to 91.5 °C
64 | COC(=O)c1nc(-c2ccc(CO)cc2)cc(N)c1Cl | 138 to 139 °C
65 | C=CCC1(O)CCC2C3CCC4=CC(=O)CCC4C3CCC21Cc1cccc(N(C)C)c1 (centres undefined) | 142 °C
66 | CSc1nc(-c2ccc(C(F)(F)F)cc2)c2cc(C)sc2n1 | 113 °C
67 | Cc1cc(=O)c(C(=O)Nc2ccccc2Cl)c(C)o1 | 206 to 207 °C

Now from value to compound:

Row | melting point | SMILES
68 | 101 °C | CSc1ccc2ncn(CCN3CCC(Nc4nc5ccccc5n4Cc4ccc(F)cc4)CC3)c(=O)c2c1
69 | 143 °C | OC(c1ccccc1)c1ccc2[nH]nnc2c1 (centres undefined)
70 | 167 to 170 °C | NS(=O)(=O)c1ccccc1-n1cccn1
71 | 83 °C | O=C(c1ccc(Cl)cc1Cl)C1(c2cccnc2)CC1
72 | 216 to 220 °C | Clc1cnc2[nH]c3ccc(CCc4ccccc4)cc3c2c1
73 | 201 to 203 °C | O=C(NO)c1ccc(-c2c3ccccc3nn2Cc2ccccc2)cc1
74 | 147 to 149 °C | CC(C)(C)OC(=O)NC1CCCOCC=CC2CC2(C(=O)NS(=O)(=O)C2CC2)NC(=O)C2CC(OCc3ccccc3)CN2C1=O (centres undefined)
75 | 78.5 to 79.5 °C | CCOC(=O)N1Cc2ccccc2C(Oc2ccc(Cl)cc2)C1 (centres undefined)
76 | 94 °C | CC(C)(C)c1ccc(S(=O)(=O)N2c3ccccc3C[C@H]2C(=O)NCc2cccc(O)c2)cc1
77 | 104 to 106 °C | Cc1cccc(NC(=O)CN2CCN(c3ccccc3C)CC2)c1
78 | 75 to 76 °C | CCc1cc(Oc2ccc([C@H](O)[C@@H](Cc3cccc(OC(F)(F)C(F)F)c3)C(=O)O)cc2)ccc1Cl (racemic)
79 | 129 to 130 °C | O=C(c1cccs1)c1cccc2cc[nH]c12
80 | 128 to 130 °C | CCC(C)(C)OC(=O)NC(C)(Cc1c[nH]c2ccccc12)C(=O)NCCc1ccc(OC)cc1 (centres undefined)
81 | 156 to 159 °C | CCN1CC(=O)N(c2ccc3ccccc3c2)C1=S
82 | 208 °C | CC(C)(C)Sc1c(CC(C)(C)C(=O)O)n(Cc2ccc(Cl)cc2)c2ccc(OCc3ccc4ccccc4n3)cc12
83 | 220 °C | O=C(NC(CCc1ccccc1)c1nnc(NS(=O)(=O)c2ccccc2)o1)c1cccc2[nH]c(-c3ccncc3)nc12 (centres undefined)

Row | melting point | SMILES
84 | 97 °C | CCN(CC)C(=O)COc1cc(-c2ccccc2)nc2ccccc12
85 | 227 to 229 °C | O=C(Nc1ccccc1)OCC#Cc1cc(F)c2ncc(C(=O)NCc3ccc(Cl)cc3)c(O)c2c1
86 | 96 to 98 °C | CCOC(=O)Cc1cccc(-c2nc(COc3ccc(CO)cc3OC)c(C)o2)c1
87 | 62 to 70 °C | CCCCCCN(Cc1ccc2ccccc2c1)c1c(N[C@@H](Cc2ccccc2)C(=O)O)c(=O)c1=O
88 | 165 °C | CCN(CC)CCSC1=C(C#N)C(c2ccccc2)(c2cccs2)C(=O)N1 (centres undefined)
89 | 183 to 185 °C | COc1ccc2c(c1)CCC1C2CCC2(C)C(=NNS(=O)(=O)c3ccccc3)CCC12 (centres undefined)
90 | 155 to 156 °C | Fc1ccc(-c2nn3cc(C(F)(F)F)ccc3c2-c2ccnc(NC3CCCC3)n2)cc1
91 | 118 to 119 °C | O=C1N[C@H](Cc2cccc(OC(F)(F)C(F)F)c2)[C@H](c2ccnc(F)c2)O1 (racemic)
92 | 156 °C | O=C(O)CCn1nc(-c2c(-c3ccccc3)nn3ccccc23)ccc1=O
93 | 148 to 150 °C | CCN1C=C(C(=O)O)C(=O)CC1c1ccccc1 (centres undefined)
94 | 134 °C | COc1ccccc1CNc1ccc2cc(Nc3cccc(C)n3)ccc2n1
95 | 119 to 122 °C | O=C1NCCCCC1c1cccc(OCc2ccccc2)c1 (centres undefined)
96 | 267 to 269 °C | O=C1CCC(N2Cc3c(OCc4ccc5ncccc5c4)cccc3C2=O)C(=O)N1 (centres undefined)
97 | 212 to 214 °C | C=C(COC1CC2C3CCC4=CC(=O)C=CC4(C)C3(F)C(O)CC2(C)C1(O)C(=O)CCl)c1ccccc1 (centres undefined)
98 | 217 to 218 °C | Nc1nc(-c2cc(Cl)ccc2Cl)nc(N2CCN(C(c3ccccc3)c3ccccc3)CC2)n1
99 | 137 to 139 °C | O=C(O)c1cccc2c1CCCc1ccccc1-2

From a melting point compilation (Tetko et al.; mined from patent text by program, amines drawn as free bases though some values may be those of a salt)
